Assay results published in patent publication US12117387B2, “Biosensor, method for manufacturing the same, and analysis method using the same” (AJOU UNIVERSITY INDUSTRY-ACADEMIC COOPERATION FOUNDATION, priority 2020, dated 2024).

Test system: RAW264.7 cell line
Assay: Boyden chamber (transwell) macrophage migration versus chemoattractant concentration, retroreflection-based cytometry
Type: cell-based, rat
Details: 24 hours migration
Experimental: Experimental Example 3 was conducted to verify that the RAW264.7 cell line cultured in the transwell (the first chamber) coated with the retroreflective particles migrated under influence of monocytechemoattractant protein-1 (MCP-1) as the chemoattractant present in the lower chamber (second chamber), and migrated to the bottom substate of the well plate (the second chamber). In this example, DMEM (Dulbeccos Modified Eagles Medium) was used as the serum-free culture medium in the upper chamber. The culture medium in the lower chamber was composed of 1 ng/ml MCP-1, 10% Fetal Bovine Serum (FBS), and 1% Penicillin streptomycin (PS) based on DMEM (Dulbeccos Modified Eagles Medium). After the first chamber and the second chamber were combined with each other, the cell migration time was specified for 24 hours to observe the cell migration, and the cell migration was observed while culturing the cells in a cell incubator.
In Experimental Example 4, an experiment was conducted to verify whether the novel developed retroreflection-based cytometry can be used for an evaluation of cell migration dependence on the concentration of the chemoattractant as used in general cell migration analysis. The MCP-1 introduced into the well plate (the second chamber) was added into the culture medium at a concentration of each of 0, 1, 10, and 100 ng/ml. […]

## monocytechemoattractant protein-1 [MCP-1]
100 ng/ml MCP-1 compared to each of 1 and 10 ng/ml
  number of migrated cells: reduced
MCP-1 concentration increased from 0 to 10 ng/ml
  number of migrated cells: increased
